# According to patent US6352976B1, “Selective inhibitors of MMP-12” (Aventis Pharmaceuticals Inc., priority 1998, dated 2002):
# Counter-ions that a name gives are not always drawn.
# How the values were obtained:
# [1] = target: T1, MMP-1 (interstitial collagenase) (Homo sapiens, UniProt P03956); experiment: Determination of inhibition constant (Ki) for MMP-1, fluorogenic substrate; assay type: biochemical; conditions: pH 7.6
# T1 construct: The active MMP-1 was obtained by treatment of proMMP-1 with trypsin; endogenous in cells; host or cells: human rheumatoid synovial fibroblasts stimulated with macrophage-conditioned medium; secreted proenzyme purified from culture medium
# T1 sequence (P03956 100-469): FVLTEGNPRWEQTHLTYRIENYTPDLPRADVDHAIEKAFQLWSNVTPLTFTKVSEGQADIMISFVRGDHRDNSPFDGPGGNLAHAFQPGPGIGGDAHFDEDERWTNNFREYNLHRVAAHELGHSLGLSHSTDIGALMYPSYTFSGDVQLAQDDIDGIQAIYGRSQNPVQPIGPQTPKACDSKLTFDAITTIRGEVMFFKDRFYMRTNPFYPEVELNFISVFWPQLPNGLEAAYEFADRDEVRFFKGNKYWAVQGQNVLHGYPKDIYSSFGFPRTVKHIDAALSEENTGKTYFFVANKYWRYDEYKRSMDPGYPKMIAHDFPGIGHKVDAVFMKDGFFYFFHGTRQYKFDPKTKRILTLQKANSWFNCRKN
# Procedure: ProMMP-1 (EC3.4.24.7; interstitial collagenase) was purified from culture medium of human rheumatoid synovial fibroblasts stimulated with macrophage-conditioned medium according to Okada, Y. et al., J. Biol. Chem. 261, 14245-14255 (1986). The active MMP-1 was obtained by treatment of proMMP-1 with trypsin (5 μg/mL) at 37° C. for 30 minutes, followed by addition of soybean trypsin inhibitor (50 μg/mL).
# The activated MMP-1 is assayed using a fluorogenic substrate, Mca-Pro-Leu-Gly-Leu-Dpa-Ala-Arg-NH2, Knight, C. G. et al., FEBS Lett. 296, 263-266 (1992), at 37° C. in 2.0 mL of assay buffer containing 50 mM Tris, pH 7.6, 0.2 M sodium chloride, 50 mM calcium chloride, and 0.02% Brij-35. The increase in fluorescence due to cleavage of Gly-Leu peptide bond by MMP-3 was monitored with Perkin-Elmer LS50B Fluorimeter (λex 328 nm, λem 393 nm, excitation slit 2.5, emission slit 10). Substrate and inhibitor stock solutions were made in DMF. For determination of Ki values for MMP-1 inhibitors, a series of intermediate inhibitor solutions were prepared in DMF and 1 or 2 μL of the diluted inhibitor solution was mixed with 1 μL of 2 mM substrate solution in DMF in a quartz cuvette containing 2 mL of assay buffer. The enzyme (10 μL of 0.2 μM […] dilution in assay buffer) was added at the last to start the reaction. For routine measurement of a Ki value for a reversible, competitive inhibitor, the initial rates in the presence of at least four inhibitor concentrations (two concentrations above Ki and two concentrations below Ki) were measured using [S]=1 μM (<<Km) and [MMP-1]=0.8 nM. Under these conditions, the measured Ki, app is close to true Ki.
# The Ki for a competitive inhibitor is calculated using: v0/vi=(1+[I]/Ki, app) and Ki=Ki, app/(1+[S]/Km), where v0 is the initial rate in the absence of inhibitor, vi is the initial rate in the presence of inhibitor at the concentration of [I], [S] is the substrate concentration, and Km is the Michaelis constant. If slow binding is observed (i.e. if the approach to the binding equilibrium is slow), the final steady-state rate rather than the initial rate is taken as vi.
# MMP-2 = target: T2, MMP-2 (Homo sapiens, UniProt P08253); experiment: Determination of inhibition constant (Ki) for MMP-2, fluorogenic substrate; assay type: biochemical; conditions: pH 7.6
# T2 construct: made in house; host or cells: Pichia pastoris (strains KM71 / SMD1168, clone 24S; vector pHIL-D2)
# T2 sequence (P08253 110-660): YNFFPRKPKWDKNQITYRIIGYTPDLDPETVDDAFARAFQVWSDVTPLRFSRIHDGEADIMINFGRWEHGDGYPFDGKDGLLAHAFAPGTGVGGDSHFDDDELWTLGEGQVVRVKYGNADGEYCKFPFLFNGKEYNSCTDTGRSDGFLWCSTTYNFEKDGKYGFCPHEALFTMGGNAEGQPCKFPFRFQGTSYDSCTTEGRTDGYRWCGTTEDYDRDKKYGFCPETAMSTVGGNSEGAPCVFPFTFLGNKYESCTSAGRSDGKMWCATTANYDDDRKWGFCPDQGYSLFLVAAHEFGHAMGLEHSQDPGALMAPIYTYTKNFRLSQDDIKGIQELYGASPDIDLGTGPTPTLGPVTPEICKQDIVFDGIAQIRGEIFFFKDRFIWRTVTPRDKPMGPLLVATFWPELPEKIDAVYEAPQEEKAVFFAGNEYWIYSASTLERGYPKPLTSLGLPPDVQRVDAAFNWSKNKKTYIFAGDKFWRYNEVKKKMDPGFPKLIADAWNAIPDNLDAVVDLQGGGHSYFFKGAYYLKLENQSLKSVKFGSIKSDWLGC
# From the text: Recombinant MMP-2 was purified from the fermentation broth of yeast Pichia pastoris that carries the integrated MMP-2 gene into its chromosome. In brief, the full-length cDNA for MMP-2 was obtained by reverse transcription of RNA from human melanoma A375M cell line by the reverse transcriptase polymerase chain reaction (RT-PCR) using sequence specific oligonucleotides. The nucleotide sequence was confirmed by Taq cycle sequencing. The cDNA was ligated into the Pichia pastoris expression vector pHIL-D2 in such a way that the expression of pro-MMP-2 is under the control of the methanol inducible alcohol oxidase promoter. The expression construct was digested with either SalI or NsiI and used to transform the Pichia pastoris strains KM71 and SMD1168. A large-scale culture of a selected clone designated 24S was performed in a high cell density fermentor and the recombinant MMP-2 was purified from the culture supernatant by gelatin-sepharose 4B (Pharmacia). The enzyme is sufficiently pure at this stage for routine measurement of inhibition. If desired, however, the enzyme may be further purified by AcA 44 gel filtration (Spectra).
# The active MMP-2 was obtained by activation of proMMP-2 at 37° C. for 1 h with 4-aminophenylmercuric acetate which was then removed by a Sephadex G-50 spin column. The enzyme is assayed using a fluorogenic substrate, Mca-Pro-Leu-Gly-Leu-Dpa-Ala-Arg-NH2, at 37° C. in 2.0 mL of assay buffer containing 50 mM Tris, pH 7.6, 0.2 M sodium chloride, 50 mM calcium chloride, 0.02% Brij-35, and 50 μM β-mercaptoethanol. The increase in fluorescence is monitored (λex 328 nm, λem 393 nm). Substrate and inhibitor stock solutions are made in DMF. The enzyme is added at the last to start the reaction. For routine measurement of a Ki value for a reversible, competitive inhibitor, the initial rates in the presence of at least four inhibitor concentrations (two inhibitor concentrations above Ki and two below Ki) are measured using [S]=1 μM (<<Km) and [MMP-2]=0.4 nM. Under these conditions, the measured Ki, app is close to true Ki.
# [2] = Table 1, Mca-Pro-Leu-Gly-Leu-Dpa-Ala-Arg-NH2, 37° C.
SMILES,"Ki [1, 2]",Ki (MMP-2; [2]),"Ki ([1]; Table 2 (comparative), method of Example A, 37° C.)","Ki (MMP-2; Table 2 (comparative), method of Example B, 37° C.)"
"CC(C)C[C@H](NC(=O)[C@@H](S)C(C)C)C(=O)N[C@@H](Cc1ccccc1)C(=O)O [Example 3, (S)-2-Mercapto-3-methylbutyroyl-(L)-leucyl-(L)-phenylalanine]",518 nM,784 nM,,
"CSCC[C@H](NC(=O)[C@@H](S)C(C)C)C(=O)N[C@@H](Cc1ccccc1)C(=O)O [Example 4, (S)-2-Mercapto-3-methylbutyroyl-(L)-methionyl-(L)-phenylalanine]",153 nM,798 nM,,
"CC(C)[C@H](S)C(=O)N[C@@H](CCCCN)C(=O)N[C@@H](Cc1ccccc1)C(=O)O [Example 5, (S)-2-Mercapto-3-methylbutyroyl-(L)-lysyl-(L)-phenylalanine trifluoroacetic acid salt]",3910 nM,1740 nM,,
"CNC(=O)[C@H](Cc1ccccc1)NC(=O)[C@H](CCc1ccccc1)NC(=O)C(S)C(C)C (stereo partly drawn) [Example 7, (S)-2-Mercapto-3-methylbutyroyl-(L)-homo-phenylalanyl-(L)-phenylalanine N-methyl amide, reference compound]",,,465 nM,3.3 nM
